Experimental data as given in US12202840B2, “Compounds for the treatment or alleviation of disorders associated with Tau aggregates” (AC Immune SA, priority 2018, dated 2025).

Tested on: Iba1 positive microglia
Assay: Iba1 immunoreactivity (microgliosis), study of Example 2
Format: in vivo
Conditions: rTg4510 mice, once daily by gavage, 20 mg/kg; FIG. 6B
Method: Double transgenic rTg4510 mice are an aggressive Tauopathy model expressing the full-length human Tau carrying the P301L mutation (Tau4R0N-P301L) under the control of the tetracycline-inducible CaMKII promoter (Ramsden et al., 2005). Wild-type animals and single transgenic mice expressing only the tetracycline-controlled transactivator (tTA) were used as genotype controls. Mice were treated and tested. The study comprised 4 treatment groups (n=15 female mice/group) with the following group distribution (see Table 6). Compound of the invention or vehicle control were administered once daily by gavage for 12 weeks starting at the age of 5.5 weeks. The Morris Water Maze (MWM) behavioral test was performed after 12.5 weeks of treatment over 5 consecutive days. During MWM testing daily dosing was continued. Behavioral testing (MWM) and biochemical quantification of sarkosyl-insoluble Tau were performed on all mice (n=15 mice/group). Measurement of cortical atrophy and histology for Iba1 were performed on 10 mice/group.
One section per animal from layer 6 was also used to quantify the Iba1 immunoreactivity. […] Sections were imaged using a digital slide scanner (Pannoramic 250 BF Flash+FL, 3D Histech Ltd.) and quantified using the image visualization software CaseViewer and the image analysis software module HistoQuant (3D Histech Ltd.).

CN(C)[C@@H]1CCc2c(c3ccc(Nc4ccc5sc(N6CCOCC6)nc5c4)nc3n2C)C1 [Example 2]
Iba1 immunoreactive area: significant decrease
